Experimental data published in US9751874B2, “Hydroxy containing FXR (NR1H4) modulating compounds” (Gilead Sciences, Inc., priority 2014, dated 2017).

Columns and labels:
[1] = biological target: T1, human FXR alpha ligand binding domain (Homo sapiens, UniProt Q96RI1); experiment: FRET activity assay (ligand mediated cofactor peptide interaction, LANCE); assay type: biochemical; conditions: GST-FXR-LBD / biotinylated SRC-1 peptide (676-700), read-out: F EC50
T1 construct: made in house; host or cells: E. coli BL21(DE3), vector pDEST15
T1 sequence (Q96RI1 187-472 isoform Q96RI1-2): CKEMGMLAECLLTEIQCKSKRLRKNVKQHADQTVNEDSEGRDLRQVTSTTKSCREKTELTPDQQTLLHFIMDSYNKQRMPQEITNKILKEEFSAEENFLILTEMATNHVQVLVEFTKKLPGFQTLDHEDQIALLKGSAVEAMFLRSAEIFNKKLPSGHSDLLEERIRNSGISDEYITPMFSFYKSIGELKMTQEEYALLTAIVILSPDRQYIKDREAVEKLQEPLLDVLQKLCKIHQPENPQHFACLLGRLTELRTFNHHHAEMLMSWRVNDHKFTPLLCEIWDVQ
Description: Determination of a ligand mediated cofactor peptide interaction to quantify ligand binding to the nuclear receptor FXR was performed as follows: Preparation of human FXR alpha ligand binding domain: The human FXRalpha LBD was expressed in E. coli strain BL21(DE3) as an N-terminally GST tagged fusion protein. The DNA encoding the FXR ligand binding domain was cloned into vector pDEST15 (Invitrogen). Expression was under control of an IPTG inducible T7 promoter. The amino acid boundaries of the ligand binding domain were amino acids 187-472 of Database entry NM_005123 (RefSeq). Expression and purification of the FXR-LBD: An overnight preculture of a transformed E. coli strain was diluted 1:20 in LB-Ampicillin medium and grown at 30° C. to an optical density of OD600=0.4-0.6. Gene expression was then induced by addition of 0.5 mM IPTG. Cells were incubated an additional 6 h at 30° C., 180 rpm. Cells were collected by centrifugation (7000×g, 7 min, rt). Per liter of original cell culture, cells were resuspended in 10 mL lysis buffer (50 mM Glucose, 50 mM Tris pH 7.9, 1 mM EDTA and 4 mg/mL lysozyme) and left on ice for 30 min. Cells were then subjected to sonication and cell debris removed via centrifugation (22000×g, 30 min, 4° C.). Per 10 mL of supernatant 0.5 mL prewashed Glutathione 4B sepharose slurry (Qiagen) was added and the suspension kept slowly rotating for 1 h at 4° C. Glutathione 4B sepharose beads were pelleted by centrifugation (2000×g, 15 sec, 4° C.) and washed twice in wash buffer (25 mM Tris, 50 mM KCl, 4 mM MgCl2 and 1M NaCl). The pellet was resuspended in 3 mL elution buffer per liter of original culture (elution buffer: 20 mM Tris, 60 mM KCl, 5 mM MgCl2 and 80 mM glutathione added immediately prior to use as powder). The suspension was left rotating for 15 min at 4° C., the beads pelleted and eluted again with half the volume of elution buffer than the first time. The eluates were pooled and dialysed overnight in 20 mM Hepes buffer (pH 7.5) containing 60 mM KCl, 5 mM MgCl2 as well as 1 mM dithiothreitol and 10% (v/v) glycerol. The protein was analysed by SDS-Page.
The method measures the ability of putative ligands to modulate the interaction between the purified bacterial expressed FXR ligand binding domain (LBD) and a synthetic biotinylated peptide based on residues 676-700 of SRC-1 (LCD2, 676-700). The sequence of the peptide used was B—[…]—COOH where the N-terminus was biotinylated (B). The ligand binding domain (LBD) of FXR was expressed as fusion protein with GST in BL-21 cells using the vector pDEST15. Cells were lysed by sonication, and the fusion proteins purified over glutathione sepharose (Pharmacia) according to the manufacturers instructions. For screening of compounds for their influence on the FXR-peptide interaction, the Perkin Elmer LANCE technology was applied. This method relies on the binding dependent energy transfer from a donor to an acceptor fluorophor attached to the binding partner of interest. For ease of handling and reduction of background from compound fluorescence LANCE technology makes use of generic fluorophore labels and time resolved detection Assays were done in a final volume of 25 μL in a 384 well plate, in a Tris-based buffer (20 mM Tris-HCl pH 7.5; 60 mM KCl, 5 mM MgCl2; 35 ng/μL BSA), containing 20-60 ng/well recombinantly expressed FXR-LBD fused to GST, 200-600 nM N-terminally biotinylated peptide, representing SRC1 aminoacids 676-700, 200 ng/well Streptavidin-xIAPC conjugate (Prozyme) and 6-10 ng/well Eu W1024-antiGST (Perkin Elmer). DMSO content of the samples was kept at 1%. After generation of the assay mix and diluting the potentially FXR modulating ligands, the assay was equilibrated for 1 h in the dark at rt in FIA-plates black 384 well (Greiner). The LANCE signal was detected by a Perkin Elmer VICTOR2VTM Multilabel Counter. The results were visualized by plotting the ratio between the emitted light at 665 and 615 nm. […]

[2] = biological target: T2, FXR ligand binding domain (Homo sapiens, UniProt Q96RI1); experiment: Mammalian One Hybrid (M1H) assay, Gal4 promoter driven transactivation in HEK293 cells; assay type: cell-based; conditions: Gal4-FXR-LBD luciferase reporter, 16 h
T2 construct: expressed in transfected cells; host or cells: HEK293 cells, transiently transfected with pCMV-BD-FXR-LBD, pFR-Luc and pRL-CMV
T2 sequence (Q96RI1 187-472 isoform Q96RI1-2): T1 sequence (Q96RI1 187-472 isoform Q96RI1-2)
Description: Mammalian One Hybrid (M1H) Assay
Determination of a ligand mediated Gal4 promoter driven transactivation to quantify ligand binding mediated activation of FXR was performed as follows: The cDNA part encoding the FXR ligand binding domain was cloned into vector pCMV-BD (Stratagene) as a fusion to the yeast GAL4 DNA binding domain under the control of the CMV promoter. The amino acid boundaries of the ligand binding domain were amino acids 187-472 of Database entry NM_005123 (RefSeq). The plasmid pFR-Luc (Stratagene) was used as the reporter plasmid, containing a synthetic promoter with five tandem repeats of the yeast GAL4 binding sites, driving the expression of the Photinus pyralis (American firefly) luciferase gene as the reporter gene. In order to improve experimental accuracy the plasmid pRL-CMV (Promega) was cotransfected. pRL-CMV contains the constitutive CMV promoter, controlling the expression of the Renilla reniformis luciferase. All Gal4 reporter gene assays were done in HEK293 cells (obtained from DSMZ, Braunschweig, Germany) grown in MEM with L-Glutamine and Earle's BSS supplemented with 10% fetal bovine serum, 0.1 mM nonessential amino acids, 1 mM sodium pyruvate, and 100 units Penicilin/[…] per mL at 37° C. in 5% CO2. Medium and supplements were obtained from Invitrogen. For the assay, […] cells were plated per well in 96 well plates in 100 μL per well MEM without Phenol Red and L-Glutamine and with Earle's BSS supplemented with 10% charcoal/dextran treated FBS (HyClone, South Logan, Utah), 0.1 mM nonessential amino acids, 2 mM glutamine, 1 mM sodium pyruvate, and 100 units Penicilin/[…] per mL, incubated at 37° C. in 5% CO2. The following day the cells were >90% confluence. Medium was removed and cells were transiently transfected using 20 μL per well of a OptiMEM—polyethylene-imine-based transfection-reagent (OptiMEM, Invitrogen; Polyethyleneimine, Aldrich Cat No. 40,827-7) including the three plasmids described above. MEM with the same composition as used for plating cells was added 2-4 h after addition of transfection mixture. Then compound stocks, prediluted in MEM were added (final vehicle concentration not exceeding 0.1%). Cells were incubated for additional 16 h before firefly and renilla luciferase activities were measured sequentially in the same cell extract using a Dual-Light-Luciferase-Assay system (Dyer et al., Anal. Biochem. 2000, 282, 158-161). All experiments were done in triplicates.

SMILES | EC50 [1] [nM] | EC50 [2] [nM]
O=C(O)c1ccc2nc(C3(O)CC4(CC(OCc5c(-c6c(Cl)cccc6Cl)noc5C5CC5)C4)C3)sc2c1 (single isomer, unassigned) [Example 11-4a, 2-(6-((5-Cyclopropyl-3-(2,6-dichlorophenyl)isoxazol-4-yl)methoxy)-2-hydroxyspiro[3.3]heptan-2-yl)benzo[d]thiazole-6-carboxylic acid] | 56 | 300
O=C(O)c1ccc2nc(C3(O)CC4(CC(OCc5c(-c6c(Cl)cccc6Cl)noc5C5CC5)C4)C3)sc2c1 (single isomer, unassigned) [Example 11-4b, 2-(6-((5-Cyclopropyl-3-(2,6-dichlorophenyl)isoxazol-4-yl)methoxy)-2-hydroxyspiro[3.3]heptan-2-yl)benzo[d]thiazole-6-carboxylic acid] | 120 | 380
O=C(O)c1ccc2sc([C@]3(O)CC[C@@H](OCc4c(-c5c(Cl)cccc5Cl)noc4C4CC4)CC3)nc2c1 [Example 4, 2-((1s,4s)-4-((5-Cyclopropyl-3-(2,6-dichlorophenyl)isoxazol-4-yl)methoxy)-1-hydroxycyclohexyl)benzo[d]thiazole-5-carboxylic acid] | 21 | 100
O=C(O)c1ccc2sc([C@]3(O)CC[C@H](OCc4c(-c5c(Cl)cccc5Cl)noc4C4CC4)CC3)nc2c1 [Example 5, 2-((1r,4r)-4-((5-Cyclopropyl-3-(2,6-dichlorophenyl)isoxazol-4-yl)methoxy)-1-hydroxycyclohexyl)benzo[d]thiazole-5-carboxylic acid] | 620 | 1900
N#Cc1ccc2nc([C@]3(O)[C@@H]4CC[C@H]3C[C@H](OCc3c(-c5c(Cl)cccc5Cl)noc3C3CC3)C4)sc2c1 [Example 8-5, 2-((1R,3s,5S,8r)-3-((5-Cyclopropyl-3-(2,6-dichlorophenyl)isoxazol-4-yl)methoxy)-8-hydroxybicyclo[3.2.1]octan-8-yl)benzo[d]thiazole-6-carbonitrile] | 31 | 58
OCc1ccc([C@]2(O)CC[C@@H](OCc3c(-c4c(Cl)cccc4Cl)noc3C3CC3)CC2)c(F)c1 [Example 9-6, (1s,4s)-4-((5-Cyclopropyl-3-(2,6-dichlorophenyl)isoxazol-4-yl)methoxy)-1-(2-fluoro-4-(hydroxymethyl)phenyl)cyclohexanol] | 220 | 320
OCc1ccc(F)c([C@]2(O)CC[C@@H](OCc3c(-c4c(Cl)cccc4Cl)noc3C3CC3)CC2)c1 [Example 9-7, (1s,4s)-4-((5-Cyclopropyl-3-(2,6-dichlorophenyl)isoxazol-4-yl)methoxy)-1-(2-fluoro-5-(hydroxymethyl)phenyl)cyclohexanol] | 110 | 150

The remaining lines, values ahead:

EC50 [1] [nM] | EC50 [2] [nM] | SMILES
120 | 23 | CC1(C)C[C@@H](OCc2c(-c3c(Cl)cccc3Cl)noc2C2CC2)CC[C@]1(O)c1nc2c(F)cc(C(=O)O)cc2s1 (racemic) [Example 11-32, 2-((1R,4S)-4-((5-Cyclopropyl-3-(2,6-dichlorophenyl)isoxazol-4-yl)methoxy)-1-hydroxy-2,2-dimethylcyclohexyl)-4-fluorobenzo[d]thiazole-6-carboxylic acid]
36 | 38 | CC1(C)C[C@](O)(c2nc3c(F)cc(C(=O)O)cc3s2)CC[C@H]1OCc1c(-c2c(Cl)cccc2Cl)noc1C1CC1 (racemic) [Example 11-33, 2-((1S,4R)-4-((5-Cyclopropyl-3-(2,6-dichlorophenyl)isoxazol-4-yl)methoxy)-1-hydroxy-3,3-dimethylcyclohexyl)-4-fluorobenzo[d]thiazole-6-carboxylic acid]
390 | 250 | CC1(OCc2c(-c3c(Cl)cccc3Cl)noc2C2CC2)C[C@H]2CC[C@@H](C1)[C@]2(O)c1nc2c(F)cc(C(=O)O)cc2s1 (single isomer, unassigned) [Example 11-39]
420 | 290 | O=C(O)c1cc(F)c2nc([C@]3(O)[C@@H]4CC[C@H]3CC(OCc3c(-c5c(Cl)cccc5Cl)noc3C3CC3)(C(F)F)C4)sc2c1 (single isomer, unassigned) [Example 11-40]
190 | 320 | COCC1(OCc2c(-c3c(Cl)cccc3Cl)noc2C2CC2)C[C@H]2CC[C@@H](C1)[C@]2(O)c1nc2c(F)cc(C(=O)O)cc2s1 (single isomer, unassigned) [Example 11-41]
46 | 190 | O=C(O)c1cc(F)c2nc([C@]3(O)CC4CC3CC4OCc3c(-c4c(Cl)cccc4Cl)noc3C3CC3)sc2c1 (single isomer, unassigned) [Example 11-48]
810 | 390 | O=C(O)c1cc(F)c2nc(C3(O)C[C@H]4CC[C@@H](C3)C4OCc3c(-c4c(Cl)cccc4Cl)noc3C3CC3)sc2c1 (single isomer, unassigned) [Example 11-54]
77 | 24 | O=C(O)c1cc(F)c2nc(C3(O)C[C@H]4CC[C@@H](C3)C4OCc3c(-c4c(Cl)cccc4Cl)noc3C3CC3)sc2c1 (single isomer, unassigned) [Example 11-55]
